According to US5306482A, “Radiopharmaceutical bacteriostats” (priority 1992, dated 1994):

Assays:
[1] = Radiolabelling test of benzalkonium chloride (BAC) with sodium pertechnetate 99mTc in the presence of PABA (ITLC-SG radiochromatography, physical appearance); type: physicochemical; details: for effect on PABA / its anti-oxidant properties / physical appearance (precipitate): MDP/PABA kit
Method: A preliminary radiolabelling test of benzalkonium chloride (BAC) with sodium pertechnetate ^99m Tc in the presence of para-aminobenzoic acid (PABA) was conducted.
(§1) Three vials with a total volume of 10 ml from a recently manufactured methylene diphosphonic acid (MDP) kit containing PABA were treated with various amounts of benzalkonium chloride, i.e., 1, 5 and 10 mg which corresponded to 0.01, 0.05 and 0.10% solutions. Radiochromatography was performed using ITLC-SG strips developed in acetone and saline. The vials were tested at 5 and 24 hours post reconstitution. At these two periods, less than 1% free pertechnetate and reduced hydrolyzed technetium was found in the three vials.

[2] = MDP/PABA formulated with benzalkonium chloride - stress test (radiochromatography); type: physicochemical; details: 10 mg BAC added with 500 mCi pertechnetate 99mTc
Method: Four vials of MDP/PABA were reconstituted with 500 mCi of pertechnetate ^99m Tc in 9 mL of normal saline. Immediately to two vials were added 1 mg/1 mL (0.01%) of benzalkonium chloride solution. Similarly, to the remaining two vials we added 10 mg/1 mL (0.1%).

[3] = MDP/PABA compared with MDP/PABA/BAC - biodistribution; type: in vivo; details: rat
Method: A lyophilized batch of MDP/PABA formulated with benzalkonium chloride (MDP/PABA/BAC) was prepared and tested. The bacterial preservative was added prior to freeze-drying. No special precaution was taken in order to avoid excessive air oxidation of the tin.
A side by side study of biodistribution of the two formulations with and without benzalkonium chloride was conducted.
Each lyophilized vial contained 10 mg of MDP, 1 mg of stannous chloride dehydrate, 2 mg of PABA and 50 μg of benzalkonium chloride (BAC). The pH was adjusted to 7.0. […] The haze was filtered off to give a clear solution.
The dosage was 83 μg MDP per rat (130-150 g). Tissue distribution was monitored at 20 minutes, 1 hour, 2 hours, 6 hours and 24 hours post-reconstitution (PR).

[4] = MDP/PABA/BAC radiochemical stress test (Example 3); type: physicochemical; details: before filtration; pH 7.0; 50 μg BAC
Method: A radiochemical "stress test" was also performed on three vials of MDP/PABA/BAC. A "non-stressed" vial was tested simultaneously as a control.
Four vials of the lyophilized product were labelled with ^99m Tc-sodium pertechnetate. Each received 500 mCi in 10 mL of technetium from a recent elution. For the first three vials, twenty minutes after reconstitution, 7 mL were removed. The fourth vial remained untouched. The vials were kept at room temperature throughout the length of the experiment.
The radiochemical tests were performed at 0.5, 6.0 and 24 hours post reconstitution.

dust culture = experiment: Bacteriostatic effect of BAC in MDP/PABA - sterility test; type: cell-based, wild strains of bacteria and fungi
Method: (§2) A test of the bacteriostatic effects of various concentrations of benzalkonium chloride in MDP/PABA was conducted. A total of fourteen vials, two each of the six concentrations of benzalkonium chloride in MDP/PABA and two control MDP/PABA vials were utilized. A dilute source of microorganisms was prepared by adding 3 drops of a "dust culture" (which was a mixed culture derived from dust and comprised a variety of wild strains of bacteria and fungi typical to ambient conditions) to 1 liter of sterile water for injection. After sufficient agitation, three drops of the dilute culture were added to one vial of each concentration, including one zero vial, and all fourteen vials were left to incubate overnight (approx. 18 hours) at room temperature. One tube (15 mi) of Fluid Thioglycollate medium and one tube (15 mi) of Tryptic Soy medium was inoculated with 1 milliliter from each of the fourteen incubated vials. Each tube was incubated for fourteen days.

[5] = tested on: concentrated dust culture; experiment: Bacteriostatic effect of BAC in MDP/PABA - viability check; type: cell-based, wild strains of bacteria and fungi
Method: as §2

[6] = MDP/PABA/BAC formulation - radiochemical stress test; type: physicochemical
Method: Four batches of MDP/PABA/BAC kits were prepared, lyophilized, and tested. The formulations were as follows: […]
One vial from each batch was reconstituted with 500 mCi ^99m Tc-sodium pertechnetate in 10 mL. Twenty minutes later, 7 mL were removed. The vials were left at room temperature for the duration of the test.

[7] = tested on: bacterial, fungal and mold growth; experiment: Microbiological test according to USP XXI - overall; type: cell-based; details: 10 or 25 μg BAC in a volume of 10 ml
Method: (§3) A microbiological test was conducted according to USP XXI.

[8] = Accelerated stability study of MDP/PABA/BAC; type: physicochemical
Method: The formulations were examined in an accelerated stability study which was conducted according to FDA guidelines.

[9] = IDP/PABA/BAC and IDP/PABA/BAC/PSB stress test (radiochromatography); type: physicochemical; details: 500 mCi pertechnetate 99mTc
Method: as §1
Two vials of IDP/PABA/BAC were reconstituted with 500 mCi of pertechnetate ^99m Tc in 10 mL of normal saline and 7 ml of the solution was removed 20 minutes later, The solutions were kept at room temperature for the length of the test. The radiochromatography tests as described in Example 1 were performed at less than 30 minutes and at 7 and 24 hours post reconstitution (PR):
Two vials of IDP/PABA/BAC/PSB were reconstituted with 500 mCi of pertechnetate ^99m Tc in 10 mL of normal saline and 7 ml of the solution was removed 20 minutes later. The solutions were kept at room temperature for the length of the test. The radiochromatography tests as described in Example 1 were performed at less than 30 min and at 7 and 24 hours post reconstitution (PR): […]

[10] = tested on: bacterial, fungal and mold growth; experiment: Microbiological test according to USP XXI (Example 15) - overall; type: cell-based
Method: as §3
Radiopharmaceutical kits employing MDP (methylene diphosphonic acid), IDP(iminodiphosphonic acid) or DTPA(diethylene-triamine-pentacetic acid) and benzylalkonium chloride (BAC), and optionally polymyxin sulfate B (PSB) were prepared, reconstituted and inoculated utilizing standard procedures.

[11] = MDP/PABA kit vials with 1, 5 and 10 mg BAC (0.01, 0.05, 0.10%), 5 and 24 hours post reconstitution

## CC(C)(C)CC(C)(C)c1ccc(OCCOCC[N+](C)(C)Cc2ccccc2)cc1 [benzethonium chloride]
[1]
  effect on PABA / its anti-oxidant properties: did not interfere with the anti-oxidant properties of PABA
  physical appearance (precipitate): caused the phosphonate to precipitate giving a cloudy solution

## N-alkylbenzyldimethylammonium chloride and/or N-dialkylbenzylmethylammonium chloride [benzalkonium chloride]
[1]
  effect on PABA / its anti-oxidant properties: did not have a deteriorating effect on PABA
  physical appearance (precipitate): no precipitate was observed
[1]; [11]
  free pertechnetate: less than 1%
  reduced hydrolyzed technetium: less than 1%
[1]; listed as BAC
  effect on PABA / its anti-oxidant properties: does not interfere with the anti-oxidant properties of PABA
[2]
  effect on stability of the product: did not affect the stability of the product
[3]
  biodistribution of the radiopharmaceutical upon addition of BAC: not altered
[4]
  haze on addition to the final solution: a slight haze appeared
Dust culture; 10 μg BAC per vial, control (not inoculated), SOY
  Sterility test (growth): NEG.
Dust culture; 10 μg BAC per vial, control (not inoculated), THIO.
  Sterility test (growth): NEG.
Dust culture; 10 μg BAC per vial, inoculated, SOY
  Sterility test (growth): POS.
Dust culture; 10 μg BAC per vial, inoculated, THIO.
  Sterility test (growth): POS.
Dust culture; 10 μg and 25 μg BAC per vial
  growth in both media: Growth was observed in both media
Dust culture; 25 μg BAC per vial, control (not inoculated), SOY
  Sterility test (growth): NEG.
Dust culture; 25 μg BAC per vial, control (not inoculated), THIO.
  Sterility test (growth): NEG.
Dust culture; 25 μg BAC per vial, inoculated, SOY
  Sterility test (growth): POS.
Dust culture; 25 μg BAC per vial, inoculated, THIO.
  Sterility test (growth): POS.
Dust culture; 50 μg BAC per vial, control (not inoculated), SOY
  Sterility test (growth): NEG.
Dust culture; 50 μg BAC per vial, control (not inoculated), THIO.
  Sterility test (growth): NEG.
Dust culture; 50 μg BAC per vial, inoculated, SOY
  Sterility test (growth): NEG.
Dust culture; 50 μg BAC per vial, inoculated, THIO.
  Sterility test (growth): NEG.
Dust culture; 100 μg BAC per vial, control (not inoculated), SOY
  Sterility test (growth): NEG.
Dust culture; 100 μg BAC per vial, control (not inoculated), THIO.
  Sterility test (growth): NEG.
Dust culture; 100 μg BAC per vial, inoculated, SOY
  Sterility test (growth): NEG.
Dust culture; 100 μg BAC per vial, inoculated, THIO.
  Sterility test (growth): NEG.
Dust culture; 250 μg BAC per vial, control (not inoculated), SOY
  Sterility test (growth): NEG.
Dust culture; 250 μg BAC per vial, control (not inoculated), THIO.
  Sterility test (growth): NEG.
Dust culture; 250 μg BAC per vial, inoculated, SOY
  Sterility test (growth): NEG.
Dust culture; 250 μg BAC per vial, inoculated, THIO.
  Sterility test (growth): NEG.
Dust culture; 1000 μg BAC per vial, control (not inoculated), SOY
  Sterility test (growth): NEG.
Dust culture; 1000 μg BAC per vial, control (not inoculated), THIO.
  Sterility test (growth): NEG.
Dust culture; 1000 μg BAC per vial, inoculated, SOY
  Sterility test (growth): NEG.
Dust culture; 1000 μg BAC per vial, inoculated, THIO.
  Sterility test (growth): NEG.
Dust culture; greater than 25 μg BAC per vial
  growth: no growth
[5]; 50 μg BAC, control, SOY
  Viability check: date growth observed: 2/2
[5]; 50 μg BAC, control, THIO.
  Viability check: date growth observed: 2/1
[5]; 50 μg BAC, innoc., SOY
  Viability check: date growth observed: 2/2
[5]; 50 μg BAC, innoc., THIO.
  Viability check: date growth observed: 2/1
[5]; 100 μg BAC, control, SOY
  Viability check: date growth observed: 2/2
[5]; 100 μg BAC, control, THIO.
  Viability check: date growth observed: 2/1
[5]; 100 μg BAC, innoc., SOY
  Viability check: date growth observed: 2/6
[5]; 100 μg BAC, innoc., THIO.
  Viability check: date growth observed: 2/1
[5]; 250 μg BAC per vial and over
  effect in viability test: beneficial effect of the benzalkonium chloride was evident
[5]; 250 μg BAC, control, SOY
  Viability check: date growth observed: NEG.
[5]; 250 μg BAC, control, THIO.
  Viability check: date growth observed: NEG.
[5]; 250 μg BAC, innoc., SOY
  Viability check: date growth observed: NEG.
[5]; 250 μg BAC, innoc., THIO.
  Viability check: date growth observed: NEG.
[5]; 1000 μg BAC, control, SOY
  Viability check: date growth observed: NEG.
[5]; 1000 μg BAC, control, THIO.
  Viability check: date growth observed: NEG.
[5]; 1000 μg BAC, innoc., SOY
  Viability check: date growth observed: NEG.
[5]; 1000 μg BAC, innoc., THIO.
  Viability check: date growth observed: NEG.
[6]
  effect on reducing capacity of stannous chloride: neither improved nor diminished the reducing capacity of stannous chloride
[7]
  bacteriostasis: effective bacteriostasis
[8]
  effect on shelf life of unreconstituted products: does not diminish the shelf life of unreconstituted products
[9]
  effect on stability of the product: did not affect the stability of the product
[10]; 25 μg BAC and optionally 25 μg polymyxin B in 10 ml
  bacteriostasis: effective bacteriostasis

## polymyxin B
[10]; addition to BAC
  protection against Gram Negative bacteria: additional protection against Gram Negative bacteria
